Measured values: article PMC11704350 (2025)

Columns and labels:
[1] = tested on: Nrf2C (DNA, i motif) CCCTCCCGCCCTTGCTCCCTTCCC; experiment: fluorescent indicator displacement; conditions: 100 mM KCl, 10 mM sodium cacodylate pH 6.5, room temperature, thiazole orange displaced
[2] = tested on: Nrf2C (DNA, i motif) CCCTCCCGCCCTTGCTCCCTTCCC; experiment: UV titration (ligand absorbance); conditions: 100 mM KCl, 10 mM sodium cacodylate pH 6.5, DNA up to 50 µM
[3] = tested on: Nrf2G (DNA, G4) GGGAAGGGAGCAAGGGCGGGAGGG; experiment: UV titration (ligand absorbance); conditions: 100 mM KCl, 10 mM sodium cacodylate pH 6.5, DNA up to 50 µM
[4] = tested on: DAPC (DNA, i motif) CCCCCGCCCCCGCCCCCGCCCCCGCCCCC; experiment: UV titration (ligand absorbance); conditions: 100 mM KCl, 10 mM sodium cacodylate pH 6.5, DNA up to 50 µM
[5] = tested on: DS (DNA, duplex) GGCATAGTGCGTGGGCGTTAGC/GCTAACGCCCACGCACTATGCC; experiment: UV titration (ligand absorbance); conditions: 100 mM KCl, 10 mM sodium cacodylate pH 6.5, DNA up to 50 µM
[6] = tested on: hTeloG (DNA, G4) GGGTTAGGGTTAGGGTTAGGGTTA; experiment: UV titration (ligand absorbance); conditions: 100 mM KCl, 10 mM sodium cacodylate pH 6.5, DNA up to 50 µM
[7] = tested on: DAPG (DNA, G4) GGGGGCGGGGGCGGGGGCGGGGGCGGGGG; experiment: UV titration (ligand absorbance); conditions: 100 mM KCl, 10 mM sodium cacodylate pH 6.5, DNA up to 50 µM
[8] = tested on: hTeloC (DNA, i motif) TAACCCTAACCCTAACCCTAACCC; experiment: UV titration (ligand absorbance); conditions: 100 mM KCl, 10 mM sodium cacodylate pH 6.5, DNA up to 50 µM
[9] = tested on: DS (DNA, duplex) GGCATAGTGCGTGGGCGTTAGC/GCTAACGCCCACGCACTATGCC; experiment: CD melting (253 nm); conditions: 100 mM KCl; 10 mM sodium cacodylate pH 6.5; 50 µM ligand, 10 µM DNA
[10] = tested on: Nrf2G (DNA, G4) GGGAAGGGAGCAAGGGCGGGAGGG; experiment: CD melting (264 nm); conditions: 100 mM KCl, 10 mM sodium cacodylate pH 6.5, 50 µM ligand, 10 µM DNA
[11] = tested on: Nrf2C (DNA, i motif) CCCTCCCGCCCTTGCTCCCTTCCC; experiment: CD melting (288 nm); conditions: 100 mM KCl; 10 mM sodium cacodylate pH 6.5; 50 µM ligand, 10 µM DNA
[12] = 0.5 µM DNA (legend; methods 1 µM)

Question: `C=Cc1cc(OC)c2c(c1)c(=O)oc1c2cc(OC)c2c(O)ccc(C3OC(C)C(O)C(C)(O)C3O)c21` (stereo not drawn) was tested. Which DC50 [1, 12] did it give?
Answer: Its DC50 is 6.3 ± 0.6 µM.

Question: How did the DC50 [1, 12] turn out when `CCC(=O)c1ccc(O)c(O)c1` was run?
Answer: The DC50 was 1.5 ± 0.1 µM.

Question: With `COc1cc(-c2ccc(Nc3ccccc3C(=O)O)c(OC)c2)ccc1Nc1ccccc1C(=O)O` as the compound, how does the DC50 [1, 12] read?
Answer: Its DC50 is 2.3 ± 0.1 µM.

Question: `COc1cccc2c1C(=O)c1c(O)c3c(c(O)c1C2=O)C[C@@](O)(C(C)=NO)C[C@@H]3O[C@H]1C[C@H](N)[C@H](O)[C@H](C)O1` was tested. Which DC50 [1, 12] did it give?
Answer: The DC50 was 4.9 ± 1.5 µM.

Question: With `Cc1c2ccncc2c(C)c2c1[nH]c1ccccc12` as the compound, how does the DC50 [1, 12] read?
Answer: The DC50 was 3.9 ± 1.0 µM.

Question: How did the DC50 [1, 12] turn out when `Cc1cc2nc3ccc(N(C)C)cc3[s+]c2cc1N` was run?
Answer: Its DC50 is 16 ± 2.7 µM.

Question: How did the DC50 [1, 12] turn out when `Cc1ccc(NCCN(C)C)c2c(=O)c3cc(O)ccc3sc12` was run?
Answer: Its DC50 is 3.4 ± 0.5 µM.

Question: With `Clc1c(Cl)c(Cl)c2[nH]nnc2c1Cl` as the compound, how does the DC50 [1, 12] read?
Answer: Its DC50 is 3.2 ± 0.1 µM.

Question: With `Nc1ccc(-c2nc3nc(N)nc(N)c3nc2-c2ccc(N)cc2)cc1` as the compound, how does the DC50 [1, 12] read?
Answer: Its DC50 is 12 ± 3.4 µM.

Question: Which Kd ([2]; ligand monitored at 320 nm) does the source give for `O=C(Nc1ccc(Nc2ccncc2)cc1)c1ccc(Nc2ccnc3ccc([N+](=O)[O-])cc23)cc1[N+](=O)[O-]` here?
Answer: Its Kd is 0.25 ± 0.1 µM.

Question: What about the Kd ([3]; ligand monitored at 320 nm) of the same compound?
Answer: Its Kd is 0.6 ± 0.1 µM.

Question: And the Kd ([4]; ligand monitored at 320 nm)?
Answer: The Kd was 0.9 ± 0.1 µM.

Question: And the Kd ([5]; ligand monitored at 320 nm)?
Answer: Its Kd is 1.9 ± 0.1 µM.

Question: What about the Kd ([6]; ligand monitored at 320 nm) of the same compound?
Answer: Its Kd is 1.0 ± 0.1 µM.

Question: What about the Kd ([7]; ligand monitored at 320 nm) of the same compound?
Answer: Its Kd is 1.6 ± 0.2 µM.

Question: What about the DC50 ([1]; poor ligand solubility) of the same compound?
Answer: The DC50 was greater than 20 µM.

Question: And the Kd ([8]; ligand monitored at 320 nm)?
Answer: The Kd was 1.1 ± 0.2 µM.

Question: And the ΔTm [9]?
Answer: Its ΔTm is 0 ± 0.7 °C.

Question: And the ΔTm ([10]; error ± 0.3)?
Answer: Its ΔTm is 5 ± 1.0 °C.

Question: With `O=C1c2cccc3cc([N+](=O)[O-])cc(c23)C(=O)N1CCN1CCCC1` as the compound, how does the Kd ([2]; ligand monitored at 335 nm) read?
Answer: Its Kd is 20 ± 1.8 µM.

Question: And the Kd ([3]; ligand monitored at 335 nm)?
Answer: The Kd was 6.6 ± 0.9 µM.

Question: What about the Kd ([4]; ligand monitored at 335 nm) of the same compound?
Answer: Its Kd is 6.0 ± 0.9 µM.

Question: And the Kd ([5]; ligand monitored at 335 nm)?
Answer: The Kd was 2.4 ± 0.2 µM.

Question: And the Kd ([6]; ligand monitored at 335 nm)?
Answer: Its Kd is 6.2 ± 0.4 µM.

Question: And the Kd ([7]; ligand monitored at 335 nm)?
Answer: The Kd was 8.2 ± 0.7 µM.

Question: And the DC50 [1, 12]?
Answer: Its DC50 is 13 ± 3.0 µM.

Question: What about the Kd ([8]; ligand monitored at 335 nm) of the same compound?
Answer: The Kd was 10 ± 1.3 µM.

Question: And the ΔTm [9]?
Answer: Its ΔTm is 9 ± 0.8 °C.

Question: And the ΔTm [10]?
Answer: Its ΔTm is 9 ± 0.3 °C.

Question: And the ΔTm [11]?
Answer: Its ΔTm is -1 ± 1.0 °C.
